row,melting point [°C],Structure (SMILES)
1,128,CC(=O)N1[C@@H]2[C@@H]3OC(C)(C)O[C@@H]3C(Br)=C[C@@H]21
2,112 to 115,CCOC(=O)C1=C[C@@H](OC(CC)CC)[C@H](NC(C)=O)[C@@H]2OC(C)(C)O[C@H]12
3,48,CCOC(=O)C1=CC=C[C@H](O)[C@@H]1O
4,89 to 90,CCOC(=O)[C@@]12C=C[C@H]([C@@H]3OC(C)(C)O[C@@H]31)N(C(C)=O)O2
5,156 to 158,CCOC(=O)C1C[C@@H](O)[C@@H](NC(C)=O)[C@@H]2OC(C)(C)O[C@H]12 (stereo partly drawn)
6,101 to 102,CCOC(=O)C1C[C@@H](OS(C)(=O)=O)[C@@H](NC(C)=O)[C@@H]2OC(C)(C)O[C@H]12 (stereo partly drawn)
7,163 to 165,CCOC(=O)C1=C[C@@H](OS(C)(=O)=O)[C@@H](NC(C)=O)[C@@H]2OC(C)(C)O[C@H]12
8,119 to 120,Cc1ccc(S(=O)(=O)N[C@H]2[C@@H]3OC(C)(C)O[C@@H]3C(Br)=C[C@H]2N=[N+]=[N-])cc1
9,153 to 154,Cc1ccc(S(=O)(=O)N[C@H]2[C@@H]3OC(C)(C)O[C@@H]3C(Br)=C[C@H]2NC(=O)OC(C)(C)C)cc1
10,106 to 107,CCOC(=O)C1=C[C@@H]2[C@H]([C@@H]3OC(C)(C)O[C@H]13)N2S(=O)(=O)c1ccc(C)cc1 (stereo partly drawn)
11,181,CC(=O)N[C@H]1C=C(Br)[C@H]2OC(C)(C)O[C@H]2[C@@H]1Br
12,154,CCOC(=O)C1=C[C@@H](OC(CC)CC)[C@H](NC(C)=O)[C@H](O)[C@@H]1O (stereo in doubt)

# Source: patent US20110201577A1 (published 2011)
